Reference: PMC2653189 (PLoS ONE, 2009)
Where two headings read alike, the source gives them in different places.

Assays:
[1] = tested on: IL-6-mediated Stat3 nuclear translocation (GFP-Stat3α); test: HTFM nuclear translocation assay in MEF/GFP-Stat3α cells; format: cell-based, murine; conditions: Mus musculus, compound 1 hour, then IL-6 200 ng/ml and IL-6sR 250 ng/ml 30 min, read-out: HTFM IC50, inhibition of IL-6-mediated Stat3 nuclear translocation
Method: Confocal and high-throughput fluorescence microscopy (HTFM) of MEF/GFP-Stat3α cells were performed as described. Briefly, for confocal fluorescence microscopy, cells were grown in 6-well plates containing a cover slip. For HTFM, cells were seeded into 96-well CC3 plates at a density of 5,000 cells/well using an automated plating system. Cells were cultured under standard conditions until 85–90% confluent. Cells were pre-treated with compound for 1 hour at 37°C then stimulated with IL-6 (200 ng/ml) and IL-6sR (250 ng/ml) for 30 minutes to provide optimal Stat3 activation and nuclear translocation in these cells, as described. Cells were fixed with 4% formaldehyde in PEM Buffer (80 mM Potassium PIPES, pH 6.8, 5 mM EGTA pH 7.0, 2 mM MgCl2) for 30 minutes at 4°C, quenched in 1 mg/ml of NaBH4 (Sigma) in PEM buffer and counterstained for 1 min in 4,6-diamidino-2-phenylindole (DAPI; Sigma; 1 mg/ml) in PEM buffer. Cover slips were examined by confocal fluorescent microscopy. Plates were analyzed by automated HTFM using the Cell Lab IC Image Cytometer (IC100) platform and Cytoshop Version 2.1 analysis software (Beckman Coulter). Nuclear translocation is quantified by using the fraction localized in the nucleus (FLIN) measurement. FLIN values were normalized by subtracting the FLIN for unstimulated cells then dividing this difference by the maximum difference (delta, Δ) in FLIN (FLIN in cells stimulated with IL-6/sIL-6R in the absence of compound minus FLIN of unstimulated cells). This ratio was multiplied by 100 to obtain the percentage of maximum difference in FLIN and was plotted, where indicated, as a function of the log compound concentration. The best-fitting curve and IC50 value were determined using 4-Parameter Logistic Model/Dose Response/XLfit 4.2, IDBS software.
Figure 4 Inhibition of cytoplasmic-to-nuclear translocation of Stat3 assessed by confocal and high-throughput fluorescence microscopy (HTFM). […] Coverslips were examined by confocal fluorescent microscopy using filters to detect GFP (column one), DAPI (column two) or both (merge; column three). In panel B, MEF-GFP-Stat3 cells were grown in 96-well plates with optical glass bottoms and pre-treated with the indicated compound at the indicated concentrations in quadruplicate for 1 hour then stimulated with IL-6 (200 ng/ml) and IL-6sR (250 ng/ml) for 30 minutes. Cells were fixed and the plates were examined by high-throughput microscopy to determine the fluorescence intensity in the nucleus (FLIN). The percent of maximum change (delta, Δ) in FLIN was calculated as described in the Methods and plotted as a function of the log of the compound concentration. […] Best-fit curves were determined using 4-Parameter Logistic Model/Dose Response/XLfit 4.2, IDBS software and were used to calculate the IC50 values (Table 2).

[2] = tested on: IFN-γ-mediated Stat1 phosphorylation; test: Immunoblot of IFN-γ-mediated Stat1 phosphorylation in HepG2 cells; format: cell-based, human; conditions: compound 300 µM 1 hour, IFN-γ 30 ng/ml 30 min
Method: (§1) The human hepatocellular carcinoma cell line (HepG2) was grown in 6-well plates under standard conditions. Cells were pretreated with compounds (0, 1, 3, 10, 30, 100 and 300 µM) for 1 hour then stimulated under optimal conditions with either interleukin-6 (IL-6; 30 ng/ml for 30 min) to activate Stat3 or interferon gamma (IFN-γ; 30 ng/ml for 30 min) to activate Stat1 [28]. Cultures were then harvested and proteins extracted using high-salt buffer, as described. Briefly, extracts were mixed with 2× sodium dodecyl sulfate (SDS) sample buffer (125 mM Tris-HCL pH 6.8; 4% SDS; 20% glycerol; 10% 2-mercaptoethanol) at a 1∶1 ratio and heated for 5 minutes at 100°C. Proteins (20 µg) were separated by 7.5% SDS-PAGE and transferred to polyvinylidene fluoride (PVDF) membrane (Millipore, Waltham, MA) and immunoblotted. Prestained molecular weight markers (BioRad; Hercules, CA) were included in each gel. Membranes were probed serially with antibody against Stat1 pY701 or Stat3 pY705 followed by antibody against Stat1 or Stat3 (Transduction labs, Lexington, KY) then antibody against β–actin (Abcam, Cambridge, MA). Membranes were stripped between antibody probing using Restore™ Western Blot Stripping Buffer (Thermo Fisher Scientific Inc., Waltham, MA) per the manufacturer's instructions. Horseradish peroxidase-conjugated goat-anti-mouse IgG was used as the secondary antibody (Invitrogen Carlsbad, CA) and the membranes were developed with enhanced chemiluminescence (ECL) detection system (Amersham Life Sciences Inc.; Arlington Heights, IL.).
Figure 2 Effect of compounds on ligand-mediated Stat3 and Stat1 phosphorylation. […] Cells were then stimulated with IL-6 (30 ng/ml) for 30 min. Protein extracts of cells were separated by SDS-PAGE, blotted and developed serially with antibodies to pStat3, total Stat3 and β-actin. Blots were stripped between each antibody probing. Band intensities were quantified by densitometry. The value of each pStat3 band was divided by its corresponding total Stat3 band intensity; the results were normalized to the DMSO-treated control value. This value was plotted as a function of the log compound concentration. The best-fitting curve was determined using 4-Parameter Logistic Model/Dose Response/XLfit 4.2, IDBS software and was used to calculate the IC50 value (Table 1). Each panel is representative of 3 or more experiments. In panel G, HepG2 cells were pretreated with DMSO alone or DMSO containing each of the compounds at a concentration of 300 µM for 60 min. Cells were then stimulated with IFN-γ (30 ng/ml) for 30 min. Protein extracts of cells were separated by SDS-PAGE and immunoblotted serially with antibodies to pStat1, total Stat1 and β-actin. Blots were stripped between each immunoblotting. The results shown are representative of 2 or more experiments.

[3] = tested on: IL-6-mediated phosphorylation of Stat3; test: Immunoblot of IL-6-mediated Stat3 phosphorylation in HepG2 cells; format: cell-based; conditions: Homo sapiens, compound 60 min, then IL-6 30 ng/ml 30 min, read-out: pStat3 IC50, inhibition of IL-6-mediated Stat3 phosphorylation
Method: as §1
Figure 2 Effect of compounds on ligand-mediated Stat3 and Stat1 phosphorylation. […] Cells were then stimulated with IL-6 (30 ng/ml) for 30 min. Protein extracts of cells were separated by SDS-PAGE, blotted and developed serially with antibodies to pStat3, total Stat3 and β-actin. Blots were stripped between each antibody probing. Band intensities were quantified by densitometry. […] The best-fitting curve was determined using 4-Parameter Logistic Model/Dose Response/XLfit 4.2, IDBS software and was used to calculate the IC50 value (Table 1). […]

[4] = tested on: breast cancer cell lines tested; test: Apoptosis assay, all breast cancer cell lines tested; format: cell-based, Human; conditions: any of the breast cancer cell lines tested; data not shown
Method: Human breast carcinoma cell lines MDA-MB-468, MDA-MB-231, MBA-MD-435 and MCF7 were kindly provided by Dr. Powel H. Brown (Breast Cancer Center, Baylor College of Medicine). Breast cancer cell line, MDA-MB-453 was kindly provided by Dr. Shou Jiang (Breast Cancer Center, Baylor College of Medicine). All cell lines were grown in DMEM medium supplemented with 10% fetal bovine serum (FBS), 25,000 units penicillin G, 25,000 µg streptomycin, and 131.4 mg L-Glutamine and cultured in the incubator under the condition of 95% air, 5% CO2 at 37°C [33]. Cells were seeded at 2,500 cells/cm^2 into 12-well plates. At 80% confluency, cells were washed with PBS and supplemented with fresh medium containing compound or the topoisomerase I-inhibitor, camptothecin, at 0, 0.1, 0.3, 1, 3, 10, 30, 100, 300 µM. At 24 hours, treatment was terminated by removing the medium from each well. Cells were lysed with cell lysis buffer (600 µl for 30 minutes at 25°C). […] The percent maximum nucleosome level was calculated by dividing the nucleosome level by the maximum nucleosome level achieved in the assay and multiplying by 100. This value was plotted as a function of the log compound concentration and the best-fitting curve and EC50 value determined using 4-Parameter Logistic Model/Dose Response/XLfit 4.2, IDBS software.

Stat3 [5] = molecular target: T1, Stat3 (Homo sapiens, UniProt P40763); test: Stat3/pY-peptide binding assay (SPR, BIAcore); conditions: recombinant Stat3 500 nM; immobilized EGFR Y1068 phosphododecapeptide; 25°C; read-out: SPR IC50, inhibition of Stat3 binding to pY peptide ligand
Method: A control (Stat3 with DMSO but without compound) was run at the beginning and the end of each cycle (40 sample injections) to ensure that the integrity of the sensor chip was maintained throughout the cycle run. The average of the two controls was normalized to 100% and used to evaluate the effect of each compound on Stat3 binding. Responses were normalized by dividing the value at 2 min by the response obtained in the absence of compounds at 2 min and multiplying by 100.

MDA-MB-231 xenografts = tested on: MDA-MB-231 xenografts; set-up: method as in PMID 17463090; conditions: 5 mg/kg every 2–3 days; cited from earlier work
Stat3 [6] = molecular target: T1, Stat3; set-up: method as in PMID 16220982; conditions: fluorescence polarization; read-out: IC50 inhibition of Stat3 binding to pY-peptide; cited from earlier work

T1 sequence (P40763 whole entry, species assumed): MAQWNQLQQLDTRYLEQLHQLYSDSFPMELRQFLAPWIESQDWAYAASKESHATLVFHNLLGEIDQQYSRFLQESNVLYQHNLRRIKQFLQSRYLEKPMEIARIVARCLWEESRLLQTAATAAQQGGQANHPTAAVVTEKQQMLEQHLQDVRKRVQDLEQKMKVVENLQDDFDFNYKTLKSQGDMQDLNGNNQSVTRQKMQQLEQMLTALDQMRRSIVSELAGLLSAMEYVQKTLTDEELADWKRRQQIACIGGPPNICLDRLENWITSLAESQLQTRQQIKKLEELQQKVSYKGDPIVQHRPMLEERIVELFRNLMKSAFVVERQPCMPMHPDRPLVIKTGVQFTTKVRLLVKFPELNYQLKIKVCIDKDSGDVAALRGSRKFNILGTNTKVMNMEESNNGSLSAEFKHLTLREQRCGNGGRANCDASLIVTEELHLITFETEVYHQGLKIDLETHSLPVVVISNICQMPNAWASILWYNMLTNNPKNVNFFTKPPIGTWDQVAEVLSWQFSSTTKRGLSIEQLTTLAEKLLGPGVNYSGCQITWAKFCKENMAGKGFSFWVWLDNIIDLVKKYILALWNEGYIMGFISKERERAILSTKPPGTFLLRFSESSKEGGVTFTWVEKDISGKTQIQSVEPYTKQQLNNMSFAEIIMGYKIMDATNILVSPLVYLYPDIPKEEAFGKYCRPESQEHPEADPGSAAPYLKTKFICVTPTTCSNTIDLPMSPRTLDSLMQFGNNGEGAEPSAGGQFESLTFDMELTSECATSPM

In the case of CCOc1cc(C=C2C(=O)c3ccccc3C2=O)cc(Cl)c1OCc1cccc(C(=O)O)c1 [Cpd3-2, 3-({2-chloro-4-[(1,3-dioxo-1,3-dihydro-2H-inden-2-ylidene)methyl]-6-ethoxyphenoxy}methyl)benzoic acid], the IC50 [1] is reported as 150 µM, the “Block of IFN-γ-stimulated Stat1 phosphorylation” value [2] is reported as “did not” and the IC50 [3] is reported as 144 µM. The “Apoptosis induction (in words)” value [4] was “neither Cpd3-2 nor Cpd3-7 induced apoptosis” and the IC50 (Stat3 [5]) was 256 µM.
For Cc1ccc(S(=O)(=O)OCC(=O)Nc2ccc(C(=O)O)c(O)c2)cc1 [S3I-201], the Xenograft growth (MDA-MB-231 xenografts) is given as “inhibited growth”.
For “hydrocinnamoyl-Tyr(PO3H2)-Leu-cis-3,4-methanoPro-Gln-NHB”, the IC50 (Stat3 [6]) is listed as 0.125 µM.
